# Measurements taken from PubChem BioAssay (NCI).
#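 Interpolation was linear, between the two tested concentrations surrounding the appropriate level; five concentrations were tested over 48 hours in 96-well plates. GI50: concentration for 50% inhibition of growth. Definition used: TGI = concentration required for complete inhibition of growth.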
# Tests used:
# Assay in all cases: growth of human tumour cells (NCI), 48 h
# A549 NSCLC = tested on: A549 NSCLC
# SK-MEL-5 melanoma = tested on: SK-MEL-5 melanoma
# BT-549 breast = tested on: BT-549 breast
# U251 CNS = tested on: U251 CNS
# TK-10 renal = tested on: TK-10 renal
# T-47D breast = tested on: T-47D breast
# HT29 colon = tested on: HT29 colon
# OVCAR-4 ovarian = tested on: OVCAR-4 ovarian
# KM12 colon = tested on: KM12 colon
# SF-539 CNS = tested on: SF-539 CNS
# M14 melanoma = tested on: M14 melanoma
# OVCAR-5 ovarian = tested on: OVCAR-5 ovarian
# DU-145 prostate = tested on: DU-145 prostate
# HL-60(TB) leukemia = tested on: HL-60(TB) leukemia
# MDA-MB-435 = tested on: MDA-MB-435
# HOP-92 NSCLC = tested on: HOP-92 NSCLC
# IGROV1 ovarian = tested on: IGROV1 ovarian
# SNB-19 CNS = tested on: SNB-19 CNS
# COLO 205 colon = tested on: COLO 205 colon
# MCF7 breast = tested on: MCF7 breast
# HS 578T breast = tested on: HS 578T breast
# A498 renal = tested on: A498 renal
# NCI-H460 lung = tested on: NCI-H460 lung
# CAKI-1 renal = tested on: CAKI-1 renal
# SF-295 CNS = tested on: SF-295 CNS
# HOP-62 NSCLC = tested on: HOP-62 NSCLC
# LOX IMVI melanoma = tested on: LOX IMVI melanoma
# OVCAR-8 ovarian = tested on: OVCAR-8 ovarian
# SF-268 CNS = tested on: SF-268 CNS
# SK-MEL-2 melanoma = tested on: SK-MEL-2 melanoma
# NCI-H226 lung = tested on: NCI-H226 lung
# K-562 leukemia = tested on: K-562 leukemia
# MDA-MB-231 breast = tested on: MDA-MB-231 breast
# HCT-15 colon = tested on: HCT-15 colon
# HCT-116 colon = tested on: HCT-116 colon
# SR leukemia = tested on: SR leukemia
# MOLT-4 leukemia = tested on: MOLT-4 leukemia
# OVCAR-3 ovarian = tested on: OVCAR-3 ovarian
# SNB-75 CNS = tested on: SNB-75 CNS
# UACC-62 melanoma = tested on: UACC-62 melanoma
# SW-620 colon = tested on: SW-620 colon
# RPMI-8226 leukemia = tested on: RPMI-8226 leukemia
# EKVX NSCLC = tested on: EKVX NSCLC
# 786-0 renal = tested on: 786-0 renal
# SK-OV-3 ovarian = tested on: SK-OV-3 ovarian
# SK-MEL-28 melanoma = tested on: SK-MEL-28 melanoma
# PC-3 prostate = tested on: PC-3 prostate
# CCRF-CEM leukemia = tested on: CCRF-CEM leukemia
# UACC-257 melanoma = tested on: UACC-257 melanoma
# SN12C renal = tested on: SN12C renal
# NCI-H23 lung = tested on: NCI-H23 lung
# ACHN renal = tested on: ACHN renal
# NCI-H522 lung = tested on: NCI-H522 lung
# NCI/ADR-RES ovarian = tested on: NCI/ADR-RES ovarian
# UO-31 renal = tested on: UO-31 renal
# MALME-3M melanoma = tested on: MALME-3M melanoma
# RXF 393 renal = tested on: RXF 393 renal
# HCC-2998 colon = tested on: HCC-2998 colon
compound,measurement,setting,value
CCOC(=O)c1ccc2c(c1)[n+](=O)c(C(=O)C1CCCS1)c(C(F)(F)F)n2[O-] (centres undefined),GI50,A549 NSCLC,274 nM
same,TGI,A549 NSCLC,764 nM
same,GI50,SK-MEL-5 melanoma,964 nM
same,TGI,SK-MEL-5 melanoma,2310 nM
same,GI50,BT-549 breast,327 nM
same,TGI,BT-549 breast,1080 nM
same,GI50,U251 CNS,169 nM
same,TGI,U251 CNS,315 nM
same,GI50,TK-10 renal,288 nM
same,TGI,TK-10 renal,765 nM
same,GI50,T-47D breast,493 nM
same,TGI,T-47D breast,1920 nM
same,GI50,HT29 colon,172 nM
same,TGI,HT29 colon,320 nM
same,GI50,OVCAR-4 ovarian,220 nM
same,TGI,OVCAR-4 ovarian,534 nM
same,GI50,KM12 colon,389 nM
same,TGI,KM12 colon,975 nM
same,GI50,SF-539 CNS,722 nM
same,TGI,SF-539 CNS,2040 nM
same,GI50,M14 melanoma,388 nM
same,TGI,M14 melanoma,1120 nM
same,GI50,OVCAR-5 ovarian,1420 nM
same,TGI,OVCAR-5 ovarian,2760 nM
same,GI50,DU-145 prostate,428 nM
same,TGI,DU-145 prostate,1050 nM
same,GI50,HL-60(TB) leukemia,258 nM
same,TGI,HL-60(TB) leukemia,643 nM
same,GI50,MDA-MB-435,330 nM
same,TGI,MDA-MB-435,987 nM
same,GI50,HOP-92 NSCLC,208 nM
same,TGI,HOP-92 NSCLC,1170 nM
same,GI50,IGROV1 ovarian,198 nM
same,TGI,IGROV1 ovarian,417 nM
same,GI50,SNB-19 CNS,1250 nM
same,TGI,SNB-19 CNS,2570 nM
same,GI50,COLO 205 colon,217 nM
same,TGI,COLO 205 colon,459 nM
same,GI50,MCF7 breast,261 nM
same,TGI,MCF7 breast,738 nM
same,GI50,HS 578T breast,2120 nM
same,TGI,HS 578T breast,6350 nM
same,GI50,A498 renal,1550 nM
same,TGI,A498 renal,3070 nM
same,GI50,NCI-H460 lung,236 nM
same,TGI,NCI-H460 lung,588 nM
same,GI50,CAKI-1 renal,189 nM
same,TGI,CAKI-1 renal,429 nM
same,GI50,SF-295 CNS,749 nM
same,TGI,SF-295 CNS,2070 nM
same,GI50,HOP-62 NSCLC,350 nM
same,TGI,HOP-62 NSCLC,820 nM
same,GI50,LOX IMVI melanoma,161 nM
same,TGI,LOX IMVI melanoma,308 nM
same,GI50,OVCAR-8 ovarian,239 nM
same,TGI,OVCAR-8 ovarian,597 nM
same,GI50,SF-268 CNS,197 nM
same,TGI,SF-268 CNS,458 nM
same,GI50,SK-MEL-2 melanoma,1600 nM
same,TGI,SK-MEL-2 melanoma,3160 nM
same,GI50,NCI-H226 lung,835 nM
same,TGI,NCI-H226 lung,2650 nM
same,GI50,K-562 leukemia,197 nM
same,TGI,K-562 leukemia,437 nM
same,GI50,MDA-MB-231 breast,490 nM
same,TGI,MDA-MB-231 breast,1780 nM
same,GI50,HCT-15 colon,264 nM
same,TGI,HCT-15 colon,824 nM
same,GI50,HCT-116 colon,173 nM
same,TGI,HCT-116 colon,340 nM
same,GI50,SR leukemia,208 nM
same,TGI,SR leukemia,428 nM
same,GI50,MOLT-4 leukemia,237 nM
same,TGI,MOLT-4 leukemia,519 nM
same,GI50,OVCAR-3 ovarian,275 nM
same,TGI,OVCAR-3 ovarian,713 nM
same,GI50,SNB-75 CNS,1130 nM
same,TGI,SNB-75 CNS,2330 nM
same,GI50,UACC-62 melanoma,1150 nM
same,TGI,UACC-62 melanoma,2450 nM
same,GI50,SW-620 colon,202 nM
same,TGI,SW-620 colon,490 nM
same,GI50,RPMI-8226 leukemia,702 nM
same,TGI,RPMI-8226 leukemia,2080 nM
same,GI50,EKVX NSCLC,1190 nM
same,TGI,EKVX NSCLC,2610 nM
same,GI50,786-0 renal,406 nM
same,TGI,786-0 renal,1460 nM
same,GI50,SK-OV-3 ovarian,1370 nM
same,TGI,SK-OV-3 ovarian,2670 nM
same,GI50,SK-MEL-28 melanoma,1630 nM
same,TGI,SK-MEL-28 melanoma,3010 nM
same,GI50,PC-3 prostate,248 nM
same,TGI,PC-3 prostate,716 nM
same,GI50,CCRF-CEM leukemia,233 nM
same,TGI,CCRF-CEM leukemia,550 nM
same,GI50,UACC-257 melanoma,474 nM
same,TGI,UACC-257 melanoma,1600 nM
same,GI50,SN12C renal,448 nM
same,TGI,SN12C renal,1810 nM
same,GI50,NCI-H23 lung,830 nM
same,TGI,NCI-H23 lung,2200 nM
same,GI50,ACHN renal,172 nM
same,TGI,ACHN renal,315 nM
same,GI50,NCI-H522 lung,187 nM
same,TGI,NCI-H522 lung,443 nM
same,GI50,NCI/ADR-RES ovarian,271 nM
same,TGI,NCI/ADR-RES ovarian,797 nM
same,GI50,UO-31 renal,156 nM
same,TGI,UO-31 renal,303 nM
same,GI50,MALME-3M melanoma,581 nM
same,TGI,MALME-3M melanoma,1980 nM
same,GI50,RXF 393 renal,603 nM
same,TGI,RXF 393 renal,1860 nM
same,GI50,HCC-2998 colon,675 nM
same,TGI,HCC-2998 colon,2000 nM
O=C(ON=c1c2ccccc2ccc2ccccc12)c1ccccc1,TGI,A549 NSCLC,> 92700 nM
same,TGI,SK-MEL-5 melanoma,29800 nM
same,TGI,BT-549 breast,64200 nM
same,TGI,U251 CNS,39000 nM
same,TGI,TK-10 renal,> 100000 nM
same,TGI,T-47D breast,91400 nM
same,TGI,HT29 colon,> 74200 nM
same,TGI,OVCAR-4 ovarian,> 89100 nM
same,TGI,KM12 colon,35600 nM
same,TGI,SF-539 CNS,32800 nM
same,TGI,M14 melanoma,33500 nM
same,TGI,OVCAR-5 ovarian,> 100000 nM
same,TGI,DU-145 prostate,> 100000 nM
same,TGI,HL-60(TB) leukemia,29500 nM
same,TGI,MDA-MB-435,42700 nM
same,TGI,HOP-92 NSCLC,67500 nM
same,TGI,IGROV1 ovarian,> 67300 nM
same,TGI,SNB-19 CNS,> 84100 nM
same,TGI,COLO 205 colon,35700 nM
same,TGI,MCF7 breast,45500 nM
same,TGI,HS 578T breast,59900 nM
same,TGI,A498 renal,50300 nM
same,TGI,NCI-H460 lung,> 80400 nM
same,TGI,CAKI-1 renal,79000 nM
same,TGI,SF-295 CNS,> 73400 nM
same,TGI,HOP-62 NSCLC,59000 nM
same,TGI,LOX IMVI melanoma,> 62100 nM
same,TGI,OVCAR-8 ovarian,> 67700 nM
same,TGI,SF-268 CNS,> 86000 nM
same,TGI,SK-MEL-2 melanoma,> 58000 nM
same,TGI,NCI-H226 lung,57900 nM
same,TGI,K-562 leukemia,> 58100 nM
same,TGI,MDA-MB-231 breast,> 65200 nM
same,TGI,HCT-15 colon,> 95900 nM
same,TGI,HCT-116 colon,34100 nM
same,TGI,SR leukemia,32400 nM
same,TGI,MOLT-4 leukemia,16200 nM
same,TGI,OVCAR-3 ovarian,62100 nM
same,TGI,SNB-75 CNS,99700 nM
same,TGI,UACC-62 melanoma,30500 nM
same,TGI,SW-620 colon,43300 nM
same,TGI,RPMI-8226 leukemia,73500 nM
same,TGI,EKVX NSCLC,96900 nM
same,TGI,786-0 renal,> 62400 nM
same,TGI,SK-OV-3 ovarian,> 91100 nM
same,TGI,SK-MEL-28 melanoma,56300 nM
same,TGI,PC-3 prostate,> 93000 nM
same,TGI,CCRF-CEM leukemia,> 76000 nM
same,TGI,UACC-257 melanoma,93400 nM
same,TGI,SN12C renal,> 68900 nM
same,TGI,NCI-H23 lung,> 100000 nM
same,TGI,ACHN renal,> 100000 nM
same,TGI,NCI-H522 lung,47300 nM
same,TGI,NCI/ADR-RES ovarian,56300 nM
same,TGI,UO-31 renal,57400 nM
same,TGI,MALME-3M melanoma,50500 nM
same,TGI,RXF 393 renal,23600 nM
same,TGI,HCC-2998 colon,> 87700 nM
